Test results: US6767921B2, “Polymorphic forms of fasidotril, their methods of preparation and pharmaceutical compositions comprising them” (Bioproject, priority 2002, dated 2004)

Test: thermodynamic stability of the polymorphic crystalline forms of Fasidotril
Format: physicochemical
Text: It has been discovered that Fasidotril can exist in various polymorphic crystalline forms which differ from each other in their physical and spectroscopic properties, their zones of thermodynamic stability and their methods of preparation. Four of these novel forms are described below and will be designated as form I, form II, form III and form IV, respectively.
It is shown that among these four forms, forms I and II are stable at low and high temperature, respectively, while forms III and IV are unstable and can be easily converted to the stable form I or II depending on the operating conditions chosen.
It is also shown that it is possible to convert form I to form II and to convert form II to form I depending on the operating conditions chosen.

Structure (SMILES): CC(=O)SC[C@@H](Cc1ccc2c(c1)OCO2)C(=O)N[C@@H](C)C(=O)OCc1ccccc1 [form I, benzyl (S,S)-2-(2-acetylsulphanylmethyl-3-benzo[1,3]dioxol-5-ylpropionylamino)propionate]
- stability of the polymorphic form (at low temperature): stable

Structure (SMILES): CC(=O)SC[C@@H](Cc1ccc2c(c1)OCO2)C(=O)N[C@@H](C)C(=O)OCc1ccccc1 [form II, benzyl (S,S)-2-(2-acetylsulphanylmethyl-3-benzo[1,3]dioxol-5-ylpropionylamino)propionate]
- stability of the polymorphic form (at high temperature): stable

Structure (SMILES): CC(=O)SC[C@@H](Cc1ccc2c(c1)OCO2)C(=O)N[C@@H](C)C(=O)OCc1ccccc1 [form III, benzyl (S,S)-2-(2-acetylsulphanylmethyl-3-benzo[1,3]dioxol-5-ylpropionylamino)propionate]
- stability of the polymorphic form (can be easily converted to the stable form I or II depending on the operating conditions): unstable
